Experiment [1] has as its system total tau (TAU5) in tau-P301L patient iPSC-derived neurons. Kind of experiment: Human total tau ELISA in P301L neurons. Type of experiment: cell-based. The note with it: P301L neurons; for TAU5 (total tau by ELISA, relative to vehicle-treated): 24 h, replicate values. An excerpt: (§1) Cells from individuals carrying the tau risk variant A152T (c.1407G > A; NCBI RefSeq NM_001123066, rs143624519), the autosomal dominant mutation P301L (c.C1907T; NCBI NM_001123066, rs63751273), or age-matched non-mutant WT tau were employed in this study (Figure 2—source data 1). Dermal fibroblasts from the tau-P301L carrier and the healthy individual were generated from a skin biopsy from subjects within the MGH Frontotemporal Disorders Unit as part of the MGH Neurodegeneration Repository. Approval for human subjects’ work was obtained under a Partners/MGH-approved IRB Protocol (#2010P001611/MGH). Fibroblasts were reprogrammed into iPSCs, which were subsequently converted into cortical-enriched neural progenitor cells (NPCs) and differentiated into neuronal cells as previously described ([Almeida et al., 2012]; [Seo et al., 2017]; [Silva et al., 2016]; [Sheridan et al., 2011]) (Silva MC, Manuscript in preparation, 2019). Briefly, cells were cultured in 6-well (Fisher Scientific Corning, Pittsburgh, PA) or 96-well (Fisher Scientific Corning) plates coated with poly-ornithine (20 μg/mL in water, Sigma, St. Louis, MO) and laminin (5 μg/mL in PBS, Sigma) (POL-coated), in DMEM/F12-B27 media [70% DMEM (Gibco, Carlsbad, CA), 30% Ham’s-F12 (Fisher Scientific Corning), 2% B27 (Gibco), 1% penicillin-streptomycin (Gibco)]. Media was supplemented with EGF (20 ng/mL, Sigma), FGF (20 ng/mL, Stemgent, Cambridge, MA) and heparin (5 μg/mL, Sigma), to promote NPC proliferation and expansion. The growth factors were withdrawn to promote neural differentiation for 6 to 8 weeks, with half media change two times per week. Cell lines’ identity was authenticated by SANGER sequencing, karyotyping and ACGH analysis at different stages of culture maintenance from iPSC to NPC. All working cell lines tested negative for mycoplasma contamination.
(§2) Compound treatment in six-well plates was performed in 2 mL media volume by removing 1 mL of conditioned media from the culture and adding 1 mL of new media pre-mixed with the compound at the appropriate 2X concentration, followed by incubation at 37°C for the designated period of time. Compound treatment in 96-well plates was performed in 100 μL media volume by adding compound directly to each well, followed by incubation at 37°C. When testing the effect of drug pre-treatment, the first compound was added as described above for the period of time needed, and then QC-01–175 was added directly onto the media without media exchange.
(§3) Neuronal cells differentiated in six-well plate format for 6 weeks, were collected as described for western blotting, and lysed in ELISA-compatible buffer (Invitrogen FNN0011), supplemented with 1 mM PMSF, protease (Roche) and phosphatase (Sigma) inhibitors cocktails, for 30 min on ice with quick vortexing. Lysates were clarified by centrifugation at 13,000 rpm at 4°C for 10 min. The clear lysates were then transferred to new microfuge tubes and total protein concentration was quantified with the Pierce BCA Protein Assay Kit (ThermoFisher Scientific). ELISA assays were performed according to manufacturer instructions: Human Total Tau ELISA (Invitrogen Kit KHB0041/KHB0042) and P-Tau[pS396] Human ELISA Kit (Invitrogen Kit KHB7031). Data was plotted using GraphPad Prism version 8.0.
On the technique in general: ELISA stands for enzyme-linked immunosorbent assay.

The subject of experiment [2] is P-tau S396 in tau-P301L patient iPSC-derived neurons. In words: P-Tau[pS396] ELISA in P301L neurons. Type of experiment: cell-based, human. The following applies: 24 h, replicate values.
Source text: as §1, §2, §3

In experiment [3] the target is T1, total tau (TAU5) in non-mutant control iPSC-derived neurons (Homo sapiens, UniProt P10636).
T1 construct: modeling pathogenic tau species without the need for overexpression of heterologous genes; endogenous in cells; host or cells: 8330-8-RC1, MGH2069-RC1, CTR2-L17-RC2 human iPSC-derived neurons
T1 sequence (P10636 1-441 isoform P10636-8, stated change not applied): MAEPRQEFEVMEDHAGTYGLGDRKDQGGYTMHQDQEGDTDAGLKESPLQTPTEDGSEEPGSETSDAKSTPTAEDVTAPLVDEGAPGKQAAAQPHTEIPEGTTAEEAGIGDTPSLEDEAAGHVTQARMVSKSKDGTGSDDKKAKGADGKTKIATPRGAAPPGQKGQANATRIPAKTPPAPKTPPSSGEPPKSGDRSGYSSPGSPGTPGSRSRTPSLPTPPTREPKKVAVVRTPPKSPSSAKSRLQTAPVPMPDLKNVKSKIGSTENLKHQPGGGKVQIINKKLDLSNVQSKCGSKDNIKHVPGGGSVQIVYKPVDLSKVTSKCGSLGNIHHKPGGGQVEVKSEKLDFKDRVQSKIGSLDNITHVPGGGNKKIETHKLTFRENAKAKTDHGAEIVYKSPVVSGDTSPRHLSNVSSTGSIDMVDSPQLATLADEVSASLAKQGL
Kind of experiment: Human total tau ELISA in control neurons 1-3. In kind it is cell-based. The following applies: all three control neurons, ELISA, 24 hr, concentrations up to 1 μM.
Source text: as §1, §2, §3

In experiment [4] the target is T2, P-tau S396 in non-mutant control iPSC-derived neurons (Homo sapiens, UniProt P10636).
T2 construct: modeling pathogenic tau species without the need for overexpression of heterologous genes; endogenous in cells; host or cells: 8330-8-RC1, MGH2069-RC1, CTR2-L17-RC2 human iPSC-derived neurons
T2 sequence (P10636 1-441 isoform P10636-8, stated change not applied): as above
Kind of experiment: P-Tau[pS396] ELISA in control neurons 1-3. The note with it: all three control neurons, ELISA, 24 hr, concentrations up to 1 μM. In kind it is cell-based.
Source text: as §1, §2, §3

In experiment [5] the test system is P-tau S396 in A152T neurons. In words: Western blot of P-tau S396 in A152T neurons. Type of experiment: cell-based, human. The note with it: 24 hr, all concentrations tested, western blot and ELISA.
Source text: as §1, §2
Neurons differentiated in six-well plates for 6 weeks were washed and collected in PBS, lysed in RIPA buffer (Boston Bio-Products, Boston, MA) supplemented with 2% SDS (Sigma), protease inhibitors cocktail (Roche Complete Mini tablets, Mannheim, Germany), and phosphatase inhibitors cocktail (Sigma), followed by water sonication (Bransonic Ultrasonic Baths, Thomas Scientific, Danbury, CT) and 20,000 g centrifugation for 20 min. Supernatants were transferred to new tubes and total protein concentration was quantified with the Pierce BCA Protein Assay Kit (ThermoFisher Scientific, Carlsbad, CA). Human recombinant tau protein ladder was purchased from Sigma. Electrophoresis were performed with the Novex NuPAGE SDS-PAGE Gel System (Invitrogen, Carlsbad, CA), by running 10 μg of total protein (pre-boiled in SDS-DTT loading buffer, NEB, Ipswich, MA) on pre-cast SDS-PAGE. Gels were transferred onto PVDF membranes (EMD Millipore) using standard procedures. Membranes were blocked in 5% BSA (Sigma) in Tris-buffered saline with Tween-20 (TBST/Biorad, Hercules, CA) for 2 hr, incubated overnight with primary antibody (see antibody section) at 4°C, followed by corresponding HRP-linked secondary antibody incubation (Cell Signaling Technology, Danvers, MA). […]
For orientation: In western blotting, separated proteins are transferred to a membrane and probed.

Values joined by “and” are separate entries in the source; they are usually repeats but may differ in a detail not shown here. Equal entries are not always repeated.

Regarding `O=C(CCc1ccc2c(c1)[nH]c1ccncc12)NCCOCCOCCNc1cccc2c1C(=O)N(C1CCCNC1=O)C2=O` (stereo not drawn) [QC-03–075], the “TAU5 (total tau by ELISA, relative to vehicle-treated)” value in experiment [1] (0.001 μM compound) was 1.36 and 1.29 and 0.81 and 0.64 and 0.98 and 0.94; in experiment [1] (0.01 μM compound) it was 1.08 and 1.03 and 0.64 and 0.51 and 0.78 and 0.75; in experiment [1] (0.05 μM compound), 1.04 and 0.99 and 0.62 and 0.49 and 0.75 and 0.72; in experiment [1] (0.1 μM compound) it was 0.98 and 0.93 and 0.58 and 0.46 and 0.71 and 0.68; in experiment [1] (0.5 μM compound) it was 1.24 and 1.35 (2×) and 1.15 and 0.91 and 0.94; in experiment [1] (1 μM compound), 1.01 and 1.13 and 1.02 and 0.81 and 1.24 and 1.19. Also, in experiment [1] (10 μM compound), the “TAU5 (total tau by ELISA, relative to vehicle-treated)” value was 1.05 and 1.00 and 0.62 and 0.49 and 0.76 and 0.73. The “effect on tau levels” value in experiment [1] (ELISA, 24 hr) was “minimal effect”. Also, the “S396 P-Tau (ELISA, relative to vehicle-treated)” value in experiment [2] (0.001 μM compound) was 0.78 and 0.92 and 0.82 and 0.98 and 0.91 and 0.80; in experiment [2] (0.01 μM compound) it was 0.75 and 0.69 and 0.79 and 0.95 and 0.71 and 0.78; in experiment [2] (0.05 μM compound), 0.82 and 0.66 and 0.76 and 0.92 and 0.72 and 0.74; in experiment [2] (0.1 μM compound) it was 0.74 and 0.68 and 0.98 and 0.64 and 0.75 and 0.87; in experiment [2] (0.5 μM compound), 1.00 (2×) and 0.92 and 1.05 and 0.87 and 1.03; in experiment [2] (1 μM compound), 1.05 and 0.97 and 1.10 and 0.91 and 1.00 and 1.08. Moreover, the “S396 P-Tau (ELISA, relative to vehicle-treated)” value in experiment [2] (10 μM compound) was 0.62 and 0.57 and 0.65 and 0.54 and 0.69 and 0.64. In addition, in experiment [3], the degradation of tau result is “No significant degradation”. Moreover, the “degradation of P-tau S396” value in experiment [4] was “No significant degradation”. In addition, the “effect on levels of P-tau S396” value in experiment [5] is reported as “no effect”.

Source of the values: article PMC6450673, “Targeted degradation of aberrant tau in frontotemporal dementia patient-derived neuronal cell models” (eLife, 2019).
